Target: T1, T-type calcium channels (α1G) (Homo sapiens, UniProt O43497)
T1 construct: expressed in transfected cells
Test: T-type calcium channel block, whole-cell voltage clamp in HEK293 cells
Format: cell-based
Settings: α1G stably expressed in HEK293 cells, step to −30 mV from holding potential −110 mV
Method: T-type calcium channels (α1G) were stably expressed in HEK293 cells and maintained at 37° C. in DMEM. Cells were released from dishes using trypsin and EGTA or Accutase and studied within 4 hours of isolation. Individual cells were placed on the stage of an inverted microscope and patched with pipettes pulled from aluminasilicate glass capillary tubes, which had resistances of 0.8-1.5 Mohm. Currents were recorded using an Axopatch 200 (Axon Instruments, Inc.) and pClamp data acquisition software (8.1). The pipette solution contained (in mM): KCl 130, EGTA 11, HEPES 10, MGATP 5, pH ═7.4. The bath solution contained (in mM): NaCl 140, CaCl2 1, HEPES 10, pH═7.4. Test compounds were diluted into bath solution to the desired concentration (100 nM-10 μM) from a stock solutions (3 or 10 mM in DMSO). Current measurements were made at 20-23° C. Cells were held at −110 mV in order to maximize occupancy in the closed state and depolarized for 100 ms to various potentials. Currents were capacity corrected using 16-64 subthreshold responses (voltage steps of 10 or 20 mV) and leak subtracted, based on linear interpolation between the current at the holding potential and 0 mV. Cells were moved from a control chamber to a chamber with test compound and the effect of the drug was assessed using a voltage clamp protocol that stepped to −30 mV for 100 ms from a holding potential of −110 mV once every 5 s. After each 10-13 minutes, the train protocol was interrupted and a full current voltage relationship obtained. In general for each compound, four cells were studied for a minimum of 13 minutes, two in drug at 500 nM and two at 1 μM. In some cases other concentrations were also studied. Data were analyzed using Matlab (Mathworks, Natick, Mass.). Drug efficacy was estimated using the relationship: Blocked Fraction=[Drug]/(IC50+[Drug])

T1 sequence (O43497 whole entry): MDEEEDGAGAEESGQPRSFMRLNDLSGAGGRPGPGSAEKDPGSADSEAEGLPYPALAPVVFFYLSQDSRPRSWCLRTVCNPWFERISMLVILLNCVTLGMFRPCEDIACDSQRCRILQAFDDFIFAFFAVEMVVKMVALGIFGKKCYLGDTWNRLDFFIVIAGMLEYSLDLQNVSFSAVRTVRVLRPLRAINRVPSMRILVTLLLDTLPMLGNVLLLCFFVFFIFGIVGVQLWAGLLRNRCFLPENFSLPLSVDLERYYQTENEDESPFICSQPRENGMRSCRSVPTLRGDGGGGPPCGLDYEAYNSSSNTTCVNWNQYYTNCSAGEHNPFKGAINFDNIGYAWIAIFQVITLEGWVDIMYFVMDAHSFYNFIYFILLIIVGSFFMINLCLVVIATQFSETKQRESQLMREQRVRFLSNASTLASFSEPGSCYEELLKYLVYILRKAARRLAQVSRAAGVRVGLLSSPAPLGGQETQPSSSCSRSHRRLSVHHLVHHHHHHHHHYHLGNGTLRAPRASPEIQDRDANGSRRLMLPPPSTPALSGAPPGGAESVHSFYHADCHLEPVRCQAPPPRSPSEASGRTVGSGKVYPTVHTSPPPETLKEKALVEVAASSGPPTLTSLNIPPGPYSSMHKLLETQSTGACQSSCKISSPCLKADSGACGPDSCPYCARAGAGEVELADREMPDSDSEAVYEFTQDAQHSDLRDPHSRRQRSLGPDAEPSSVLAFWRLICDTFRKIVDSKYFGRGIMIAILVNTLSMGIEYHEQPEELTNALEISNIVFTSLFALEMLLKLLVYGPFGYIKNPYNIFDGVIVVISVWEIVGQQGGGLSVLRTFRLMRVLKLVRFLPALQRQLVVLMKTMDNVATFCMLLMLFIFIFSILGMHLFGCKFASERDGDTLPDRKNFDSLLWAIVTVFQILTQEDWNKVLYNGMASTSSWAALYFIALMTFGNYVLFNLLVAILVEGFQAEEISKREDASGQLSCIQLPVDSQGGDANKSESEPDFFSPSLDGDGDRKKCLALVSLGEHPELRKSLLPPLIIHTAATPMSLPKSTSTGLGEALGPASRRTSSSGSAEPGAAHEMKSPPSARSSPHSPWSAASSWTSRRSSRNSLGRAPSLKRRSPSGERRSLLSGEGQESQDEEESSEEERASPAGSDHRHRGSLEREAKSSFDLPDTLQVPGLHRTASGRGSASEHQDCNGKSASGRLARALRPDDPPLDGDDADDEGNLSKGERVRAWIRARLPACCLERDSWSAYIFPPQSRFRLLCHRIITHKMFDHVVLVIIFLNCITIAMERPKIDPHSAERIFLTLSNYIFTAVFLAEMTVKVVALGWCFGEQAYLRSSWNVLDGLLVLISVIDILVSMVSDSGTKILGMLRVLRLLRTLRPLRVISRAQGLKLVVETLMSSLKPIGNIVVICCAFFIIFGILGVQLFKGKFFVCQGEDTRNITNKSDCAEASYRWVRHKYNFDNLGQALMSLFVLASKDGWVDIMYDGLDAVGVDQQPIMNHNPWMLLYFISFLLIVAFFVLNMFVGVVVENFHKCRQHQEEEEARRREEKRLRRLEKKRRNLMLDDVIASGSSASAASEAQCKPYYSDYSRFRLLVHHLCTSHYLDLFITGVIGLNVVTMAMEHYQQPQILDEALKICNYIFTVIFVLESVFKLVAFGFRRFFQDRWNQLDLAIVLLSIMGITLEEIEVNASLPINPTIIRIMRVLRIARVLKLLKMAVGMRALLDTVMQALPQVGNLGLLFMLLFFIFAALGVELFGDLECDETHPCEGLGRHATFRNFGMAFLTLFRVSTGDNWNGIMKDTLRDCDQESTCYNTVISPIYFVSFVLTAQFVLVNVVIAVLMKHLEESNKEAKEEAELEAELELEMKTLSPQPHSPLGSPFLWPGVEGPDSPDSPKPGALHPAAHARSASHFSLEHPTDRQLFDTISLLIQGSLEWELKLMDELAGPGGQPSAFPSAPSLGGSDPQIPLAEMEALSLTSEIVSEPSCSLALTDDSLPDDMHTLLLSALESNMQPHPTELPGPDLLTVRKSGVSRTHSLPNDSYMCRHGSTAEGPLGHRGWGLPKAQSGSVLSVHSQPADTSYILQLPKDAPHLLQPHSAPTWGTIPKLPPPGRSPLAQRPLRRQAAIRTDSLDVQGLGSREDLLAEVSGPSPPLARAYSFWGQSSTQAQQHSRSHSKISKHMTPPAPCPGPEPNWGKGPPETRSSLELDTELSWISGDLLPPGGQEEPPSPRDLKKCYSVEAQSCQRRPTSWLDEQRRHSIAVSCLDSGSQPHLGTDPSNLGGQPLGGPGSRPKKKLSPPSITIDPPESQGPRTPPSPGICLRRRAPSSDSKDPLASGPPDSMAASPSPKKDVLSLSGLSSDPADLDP

Row | SMILES | % of calcium channels blocked (1 μM of comp'd) [%] | % of calcium channels blocked (500 nM of comp'd) [%]
1 | CCCCCCCCCCCCCCCc1cccc(OC(C)C)c1C1C(C(=O)OC)=C(C)NC(C)=C1C(=O)OC [DHP-5, dimethyl 1,4-dihydro-4-(2′-isopropoxy-6′-pentadecylphenyl)-2,6-dimethyl-3,5-pyridine dicarboxylate] | 80 | –
2 | CCCCCCCCCCCCCCCc1cccc(OCC)c1C1C(C(=O)OCC)=C(C)NC(C)=C1C(=O)OC(C)C (stereo not shown) [DHP-12, ethyl isopropyl 1,4-dihydro-4-(2′-ethoxy-6′-pentadecylphenyl)-2,6-dimethyl-3,5-pyridine dicarboxylate] | 77 | 5
3 | COCC(=O)O[C@]1(CCN(C)CCCc2nc3ccccc3[nH]2)CCc2cc(F)ccc2[C@@H]1C(C)C [Mibefradil] | 90 | 75
4 | COC(=O)C1=C(C)NC(C)=C(C(=O)OC)C1c1ccccc1[N+](=O)[O-] [Nifedipine] | 15 | 0

Reference: US7235570B2, “1,4-dihydropyridine and pyridine compounds as calcium channel blockers” (Vittal Mallya Scientific Research, priority 2002, dated 2007)
